From patent US20240165052A1 (priority 2021, published 2024)

Tests used:
[1] = at 20° C.; cited from earlier work
[2] = pH of phosphate buffer (donor medium) with (S)-ketamine HCl or OTF; assay type: physicochemical
[3] = tested on: porcine mucosa (mucosa oesophagus); test: in vitro permeation of (S)-ketamine, Franz diffusion cell; conditions: 37° C.

For `NC(CO)(CO)CO` [TRIS, tris(hydroxymethyl)aminomethane], the pKs [1] is given as 8.2.

In the case of `CN[C@]1(c2ccccc2Cl)CCCCC1=O.Cl` [(S)-ketamine HCl], the “Buffer + (S)-ketamine HCl pH at 22° C.” value ([2]; acidic buffer (pH 4.99 at 22° C.)) is reported as 4.92, the “Buffer + (S)-ketamine HCl pH at 22° C.” value ([2]; alkaline buffer (pH 8.33 at 22° C.)) is reported as 7.81 and the “Buffer + (S)-ketamine HCl pH at 22° C.” value ([2]; neutral buffer (pH 7.46 at 22° C.)) is reported as 6.64.

In the case of `CNC1(c2ccccc2Cl)CCCCC1=O` (racemic) [(S)-ketamine, (S)-(±)-2-(2-chlorophenyl)-2-(methylamino)cyclohexan-1-one], the “permeation rate of S-ketamine” value ([3]; 2.77 mg (S)-ketamine HCl on mucosa, acidic buffer as donor, FIG. 1) is reported as “lowest permeation rate”, the “permeation of S-ketamine” value ([3]; 2.77 mg (S)-ketamine HCl on mucosa, neutral buffer as donor, FIG. 1) is reported as “best” and the “permeation rate of S-ketamine” value ([3]; 0.287 cm^2 OTF formulation 1 + 70 μL acidic buffer, FIG. 2) is reported as “lowest permeation rate”. For the same compound, the “permeation of S-ketamine” value ([3]; 0.287 cm^2 OTF formulation 1 + 70 μL alkaline buffer, FIG. 2) was “best”.
